Measured values published in patent publication US20260176320A1, “MODULATORS OF G-PROTEIN COUPLED RECEPTORS” (priority 2018, published 2026).
Where two headings read alike, the source gives them in different places.

Legend:
Type in all cases: cell-based
GLP-1R [1] = molecular target: T1, GLP-1R (Homo sapiens, UniProt P43220); assay: HitHunter cAMP assay (GLP-1R); settings: cAMP; for Emax: read-out: (Emax) GLP-1R
Method in brief: (§1)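 Cells were resuspended in HBSS plus HEPES, IBMX (625 μM) and BSA, then dispensed with antibody at 10,000 per well. Agonists followed as 22-point twofold series, 30 min at room temperature. Antibody reagent and detection steps ran 1 h and overnight in the dark before luminescence.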

GLP-1R [2] = molecular target: T1, GLP-1R; assay: PathHunter β-arrestin assay
Method in brief: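 Agonist concentration–response (22 points, 2-fold steps, duplicates) was run on cells plated the previous day in BSA-supplemented (0.2%) medium. Stimulation lasted 90 min at 37 °C, followed by a 3 h dark incubation with detection reagent at room temperature and a luminescence read.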

GIP-R = molecular target: T2, GIP-R (Homo sapiens, UniProt P48546); assay: HitHunter cAMP assay (GIP-R); settings: cAMP; for Emax: read-out: (Emax) GIP-R
T2 sequence (P48546 22-466): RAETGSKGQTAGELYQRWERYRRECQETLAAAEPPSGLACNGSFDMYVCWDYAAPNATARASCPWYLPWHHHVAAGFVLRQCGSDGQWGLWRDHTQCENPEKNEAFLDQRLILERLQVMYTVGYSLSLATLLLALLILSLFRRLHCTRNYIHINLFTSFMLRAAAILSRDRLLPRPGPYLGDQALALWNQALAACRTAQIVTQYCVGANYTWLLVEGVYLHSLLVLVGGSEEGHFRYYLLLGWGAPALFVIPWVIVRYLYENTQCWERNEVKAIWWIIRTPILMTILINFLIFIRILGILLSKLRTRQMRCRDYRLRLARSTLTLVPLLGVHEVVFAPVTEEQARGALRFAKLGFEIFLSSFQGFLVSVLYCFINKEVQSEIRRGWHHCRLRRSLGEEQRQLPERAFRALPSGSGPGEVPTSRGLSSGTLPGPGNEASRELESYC
Method in brief: as §1

[3] = Table 3, read-out: EC50 GLP-1R/nM
[4] = Table 3A, read-out: EC50 GLP-1R/nM
[5] = PathHunter β-arrestin assay, read-out: β-arrestin activity EC50
[6] = Table 3, read-out: EC50 GIP-R/nM
[7] = Table 3A, read-out: EC50 GIP-R/nM

T1 sequence (P43220 24-463): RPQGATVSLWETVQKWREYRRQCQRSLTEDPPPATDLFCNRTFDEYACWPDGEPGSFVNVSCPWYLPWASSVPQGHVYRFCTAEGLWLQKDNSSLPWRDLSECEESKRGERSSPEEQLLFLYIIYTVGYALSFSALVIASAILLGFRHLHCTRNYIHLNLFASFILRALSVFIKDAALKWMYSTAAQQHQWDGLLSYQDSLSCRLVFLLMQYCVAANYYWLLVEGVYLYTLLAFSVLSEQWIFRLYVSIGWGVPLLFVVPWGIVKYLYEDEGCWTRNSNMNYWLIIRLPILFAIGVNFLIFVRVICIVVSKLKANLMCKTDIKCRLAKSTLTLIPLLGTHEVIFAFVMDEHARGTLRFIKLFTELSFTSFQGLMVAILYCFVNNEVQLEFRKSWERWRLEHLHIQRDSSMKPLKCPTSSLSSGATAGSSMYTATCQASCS

| SMILES | Emax (GLP-1R [1]; Table 3) | EC50 (GLP-1R [1]; [3]) | Emax (GLP-1R [1]; Table 3A) | EC50 (GLP-1R [1]; [4]) | EC50 (GLP-1R [2]; [5]) | Emax (GIP-R; Table 3) | EC50 (GIP-R; [6]) | Emax (GIP-R; Table 3A) | EC50 (GIP-R; [7]) | EC50 (GLP-1R [1]; EC50 GLP-1R/nM, Table 3) | EC50 (GLP-1R [1]; EC50 GLP-1R/nM, Table 3A) | EC50 (GLP-1R [2]) | EC50 (GIP-R; EC50 GIP-R/nM, Table 3) | EC50 (GIP-R; read-out: EC50 GIP-R/nM, Table 3A) |
| --- | --- | --- | --- | --- | --- | --- | --- | --- | --- | --- | --- | --- | --- | --- |
| CCCCCCCCCCCCCCCC(=O)N[C@@H](CCC(=O)NCCCC[C@H](NC(=O)[C@H](CO)NC(=O)[C@@H]1CCCN1C(=O)[C@@H]1CCCN1C(=O)[C@@H]1CCCN1C(=O)[C@H](C)NC(=O)CNC(=O)[C@H](CO)NC(=O)[C@H](CO)NC(=O)[C@@H]1CCCN1C(=O)CNC(=O)CNC(=O)[C@H](C)NC(=O)[C@H](CC(C)C)NC(=O)[C@H](CC(C)C)NC(=O)[C@H](Cc1c[nH]c2ccccc12)NC(=O)[C@H](CC(N)=O)NC(=O)[C@@H](NC(=O)[C@H](Cc1ccccc1)NC(=O)[C@H](CCC(=O)O)NC(=O)C(C)(C)NC(=O)[C@H](C)NC(=O)[C@H](C)NC(=O)[C@H](CCC(N)=O)NC(=O)[C@H](CCCCN)NC(=O)[C@H](CC(=O)O)NC(=O)[C@H](CC(C)C)NC(=O)[C@H](Cc1ccc(O)cc1)NC(=O)[C@@H](NC(=O)[C@H](CO)NC(=O)[C@H](Cc1ccc(O)cc1)NC(=O)[C@H](CC(=O)O)NC(=O)[C@H](CO)NC(=O)[C@@H](NC(=O)[C@H](Cc1ccccc1)NC(=O)[C@@H](NC(=O)CNC(=O)[C@H](CCC(=O)O)NC(=O)CSCC(=O)NCCN1CCSCC1=O)[C@@H](C)O)[C@@H](C)O)[C@@H](C)CC)C(C)C)C(N)=O)C(=O)O [Compound 36] | 108% | < 1 nM | 108% | < 1 nM | > 1000 nM | 51 to 75% | 0.1 to 10 nM | 51 to 75% | 0.1 to 10 nM |  |  |  |  |  |
| CCCCCCCCCCCCCCCC(=O)N[C@@H](CCC(=O)NCCCC[C@H](NC(=O)[C@H](CO)NC(=O)[C@@H]1CCCN1C(=O)[C@@H]1CCCN1C(=O)[C@@H]1CCCN1C(=O)[C@H](C)NC(=O)CNC(=O)[C@H](CO)NC(=O)[C@H](CO)NC(=O)[C@@H]1CCCN1C(=O)CNC(=O)CNC(=O)[C@H](C)NC(=O)[C@H](CC(C)C)NC(=O)[C@H](CC(C)C)NC(=O)[C@H](Cc1c[nH]c2ccccc12)NC(=O)[C@H](CC(N)=O)NC(=O)[C@@H](NC(=O)[C@H](Cc1ccccc1)NC(=O)[C@H](CCC(=O)O)NC(=O)C(C)(C)NC(=O)[C@H](C)NC(=O)[C@H](C)NC(=O)[C@H](CCC(N)=O)NC(=O)[C@H](CCCCN)NC(=O)[C@H](CC(=O)O)NC(=O)[C@H](CC(C)C)NC(=O)[C@H](Cc1ccc(O)cc1)NC(=O)[C@@H](NC(=O)[C@H](CO)NC(=O)[C@H](Cc1ccc(O)cc1)NC(=O)[C@H](CC(=O)O)NC(=O)[C@H](CO)NC(=O)[C@@H](NC(=O)[C@H](Cc1ccccc1)NC(=O)[C@@H](NC(=O)CNC(=O)[C@H](CCC(=O)O)NC(=O)CSCC(=O)NCCN1CCNC(=O)C1)[C@@H](C)O)[C@@H](C)O)[C@@H](C)CC)C(C)C)C(N)=O)C(=O)O [Compound 37] | 110% | < 1 nM | 110% | < 1 nM | > 1000 nM | 10 to 21% | 1 to 10 nM | 10 to 21% |  |  |  |  |  |  |
| CCCCCCCCCCCCCCCC(=O)N[C@@H](CCC(=O)NCCCC[C@H](NC(=O)[C@H](CO)NC(=O)[C@@H]1CCCN1C(=O)[C@@H]1CCCN1C(=O)[C@@H]1CCCN1C(=O)[C@H](C)NC(=O)CNC(=O)[C@H](CO)NC(=O)[C@H](CO)NC(=O)[C@@H]1CCCN1C(=O)CNC(=O)CNC(=O)[C@H](C)NC(=O)[C@H](CC(C)C)NC(=O)[C@H](CC(C)C)NC(=O)[C@H](Cc1c[nH]c2ccccc12)NC(=O)[C@H](CC(N)=O)NC(=O)[C@@H](NC(=O)[C@H](Cc1ccccc1)NC(=O)[C@H](CCC(=O)O)NC(=O)C(C)(C)NC(=O)[C@H](C)NC(=O)[C@H](C)NC(=O)[C@H](CCC(N)=O)NC(=O)[C@H](CCCCN)NC(=O)[C@H](CC(=O)O)NC(=O)[C@H](CC(C)C)NC(=O)[C@H](Cc1ccc(O)cc1)NC(=O)[C@@H](NC(=O)[C@H](CO)NC(=O)[C@H](Cc1ccc(O)cc1)NC(=O)[C@H](CC(=O)O)NC(=O)[C@H](CO)NC(=O)[C@@H](NC(=O)[C@H](Cc1ccccc1)NC(=O)[C@@H](NC(=O)CNC(=O)[C@H](CCC(=O)O)NC(=O)CSCC(=O)NCCN1CCN(C)C(=O)C1)[C@@H](C)O)[C@@H](C)O)[C@@H](C)CC)C(C)C)C(N)=O)C(=O)O [Compound 38] | 97 to 104% | 0.1 to 1 nM | 97 to 104% | 0.1 to 1 nM | > 1000 nM | 18 to 43% | 1 to 10 nM | 18 to 43% | 1 to 1000 nM |  |  |  |  |  |
| CCCCCCCCCCCCCCCC(=O)N[C@@H](CCC(=O)NCCCC[C@H](NC(=O)[C@H](CO)NC(=O)[C@@H]1CCCN1C(=O)[C@@H]1CCCN1C(=O)[C@@H]1CCCN1C(=O)[C@H](C)NC(=O)CNC(=O)[C@H](CO)NC(=O)[C@H](CO)NC(=O)[C@@H]1CCCN1C(=O)CNC(=O)CNC(=O)[C@H](C)NC(=O)[C@H](CC(C)C)NC(=O)[C@H](CC(C)C)NC(=O)[C@H](Cc1c[nH]c2ccccc12)NC(=O)[C@H](CC(N)=O)NC(=O)[C@@H](NC(=O)[C@H](Cc1ccccc1)NC(=O)[C@H](CCC(=O)O)NC(=O)C(C)(C)NC(=O)[C@H](C)NC(=O)[C@H](C)NC(=O)[C@H](CCC(N)=O)NC(=O)[C@H](CCCCN)NC(=O)[C@H](CC(=O)O)NC(=O)[C@H](CC(C)C)NC(=O)[C@H](Cc1ccc(O)cc1)NC(=O)[C@@H](NC(=O)[C@H](CO)NC(=O)[C@H](Cc1ccc(O)cc1)NC(=O)[C@H](CC(=O)O)NC(=O)[C@H](CO)NC(=O)[C@@H](NC(=O)[C@H](Cc1ccccc1)NC(=O)[C@@H](NC(=O)CNC(=O)[C@H](CCC(=O)O)NC(=O)CSCC(=O)NCCN1CCOC1=O)[C@@H](C)O)[C@@H](C)O)[C@@H](C)CC)C(C)C)C(N)=O)C(=O)O [Compound 39] | 102 to 104% | < 1 nM | 102 to 104% | < 1 nM | > 1000 nM | 40 to 60% | 0.1 to 10 nM | 40 to 60% | 0.1 to 10 nM |  |  |  |  |  |
| CCCCCCCCCCCCCCCC(=O)N[C@@H](CCC(=O)NCCCC[C@H](NC(=O)[C@H](CO)NC(=O)[C@@H]1CCCN1C(=O)[C@@H]1CCCN1C(=O)[C@@H]1CCCN1C(=O)[C@H](C)NC(=O)CNC(=O)[C@H](CO)NC(=O)[C@H](CO)NC(=O)[C@@H]1CCCN1C(=O)CNC(=O)CNC(=O)[C@H](C)NC(=O)[C@H](CC(C)C)NC(=O)[C@H](CC(C)C)NC(=O)[C@H](Cc1c[nH]c2ccccc12)NC(=O)[C@H](CC(N)=O)NC(=O)[C@@H](NC(=O)[C@H](Cc1ccccc1)NC(=O)[C@H](CCC(=O)O)NC(=O)C(C)(C)NC(=O)[C@H](C)NC(=O)[C@H](C)NC(=O)[C@H](CCC(N)=O)NC(=O)[C@H](CCCCN)NC(=O)[C@H](CC(=O)O)NC(=O)[C@H](CC(C)C)NC(=O)[C@H](Cc1ccc(O)cc1)NC(=O)[C@@H](NC(=O)[C@H](CO)NC(=O)[C@H](Cc1ccc(O)cc1)NC(=O)[C@H](CC(=O)O)NC(=O)[C@H](CO)NC(=O)[C@@H](NC(=O)[C@H](Cc1ccccc1)NC(=O)[C@@H](NC(=O)CNC(=O)[C@H](CCC(=O)O)NC(=O)CSCC(=O)NCCN1CCCCS1(=O)=O)[C@@H](C)O)[C@@H](C)O)[C@@H](C)CC)C(C)C)C(N)=O)C(=O)O [Compound 40] | 101 to 105% |  | 101 to 105% |  |  | 14 to 34% |  | 14 to 34% |  | 0.1 to 1 nM | 0.1 to 1 nM | > 1000 nM | 1 to 10 nM | 1 to 1000 nM |
| CCCCCCCCCCCCCCCC(=O)N[C@@H](CCC(=O)NCCCC[C@H](NC(=O)[C@H](CO)NC(=O)[C@@H]1CCCN1C(=O)[C@@H]1CCCN1C(=O)[C@@H]1CCCN1C(=O)[C@H](C)NC(=O)CNC(=O)[C@H](CO)NC(=O)[C@H](CO)NC(=O)[C@@H]1CCCN1C(=O)CNC(=O)CNC(=O)[C@H](C)NC(=O)[C@H](CC(C)C)NC(=O)[C@H](CC(C)C)NC(=O)[C@H](Cc1c[nH]c2ccccc12)NC(=O)[C@H](CC(N)=O)NC(=O)[C@@H](NC(=O)[C@H](Cc1ccccc1)NC(=O)[C@H](CCC(=O)O)NC(=O)C(C)(C)NC(=O)[C@H](C)NC(=O)[C@H](C)NC(=O)[C@H](CCC(N)=O)NC(=O)[C@H](CCCCN)NC(=O)[C@H](CC(=O)O)NC(=O)[C@H](CC(C)C)NC(=O)[C@H](Cc1ccc(O)cc1)NC(=O)[C@@H](NC(=O)[C@H](CO)NC(=O)[C@H](Cc1ccc(O)cc1)NC(=O)[C@H](CC(=O)O)NC(=O)[C@H](CO)NC(=O)[C@@H](NC(=O)[C@H](Cc1ccccc1)NC(=O)[C@@H](NC(=O)CNC(=O)[C@H](CCC(=O)O)NC(=O)CSCC(=O)NCCN1CCCS1(=O)=O)[C@@H](C)O)[C@@H](C)O)[C@@H](C)CC)C(C)C)C(N)=O)C(=O)O [Compound 42] | 102 to 109% | < 1 nM | 102 to 109% | < 1 nM | > 1000 nM | 28 to 46% | 0.1 to 10 nM | 28 to 46% | 0.1 to 100 nM |  |  |  |  |  |
